A word on the IC50: it is the concentration that gives 50% inhibition.

Experiment in all cases: URAT1 uric acid transport activity assay
Format in all cases: cell-based

Test [1] has as its target T1, r-A21T rURAT1 point mutant (Rattus norvegicus, UniProt Q3ZAV1, A21T).
T1 construct: expressed in transfected cells; host or cells: HEK-293T
T1 sequence (Q3ZAV1 1-553 A21T): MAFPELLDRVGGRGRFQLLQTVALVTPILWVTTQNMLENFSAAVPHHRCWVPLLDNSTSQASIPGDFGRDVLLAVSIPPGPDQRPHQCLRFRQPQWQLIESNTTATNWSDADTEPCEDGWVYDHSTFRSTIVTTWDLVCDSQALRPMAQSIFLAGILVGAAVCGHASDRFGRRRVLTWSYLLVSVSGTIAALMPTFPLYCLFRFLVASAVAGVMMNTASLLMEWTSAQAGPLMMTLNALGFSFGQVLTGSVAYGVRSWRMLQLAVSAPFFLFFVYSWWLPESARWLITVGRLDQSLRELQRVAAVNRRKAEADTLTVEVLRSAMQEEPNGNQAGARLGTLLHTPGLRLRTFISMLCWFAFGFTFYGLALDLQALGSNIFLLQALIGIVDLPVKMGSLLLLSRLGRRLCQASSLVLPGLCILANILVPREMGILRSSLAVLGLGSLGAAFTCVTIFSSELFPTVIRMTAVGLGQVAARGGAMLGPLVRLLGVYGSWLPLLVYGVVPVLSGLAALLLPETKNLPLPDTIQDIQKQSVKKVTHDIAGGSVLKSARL
The method in brief: (§1)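 Cells expressing site-directed rat URAT1 mutants were exposed to inhibitor dilutions for 5 minutes before radiolabelled uric acid (100 μM) was added for 10 minutes. Potency was derived by nonlinear regression of log inhibitor versus response.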

A further test concerns the target T2, rat URAT1 (rURAT1 WT) (Rattus norvegicus, UniProt Q3ZAV1).
T2 sequence (Q3ZAV1 1-553): T1 sequence (Q3ZAV1 1-553 A21T) with T21A

Test [2] concerns the target T3, r-N35S/M481I rURAT1 double point mutant (Rattus norvegicus, UniProt Q3ZAV1, M481I/N35S).
T3 construct: hURAT1 and rURAT1 are 553 amino acid proteins with 12 transmembrane segments; expressed in transfected cells; host or cells: HEK-293T
T3 sequence (Q3ZAV1 1-553 N35S/M481I): T1 sequence (Q3ZAV1 1-553 A21T) with T21A, N35S, M481I
The method, boiled down: as §1

[3] abbreviates: rURAT1 WT, MES pH 5.5, 100 μM 14C-uric acid, read-out: IC50 (uric acid transport).

Residue numbers refer to the chain shown, from its start. Read-outs that look alike come from different tables or passages of the source.

Regarding `CCc1oc2ccccc2c1C(=O)c1cc(Br)c(O)c(Br)c1` [benzbromarone], the IC50 in test [1] stood at 22 ± 3.6 µM; against rat URAT1 (rURAT1 WT), 26 µM; in test [2] it was 9 ± 1.5 µM.

For `O=C(O)CSc1nnc(Br)n1-c1ccc(C2CC2)c2ccccc12` [lesinurad, 2-((5-bromo-4-(4-cyclopropylnaphthalen-1-yl)-4H-1,2,4-triazol-3-yl)thio)acetic acid], the 50% inhibitory concentration (IC50) came out at 71 ± 5.9 µM in test [1] (r-A21T, MES pH 5.5, 100 μM 14C-uric acid, read-out: IC50 (uric acid transport)); 81 µM on rat URAT1 (rURAT1 WT) (setting [3]); 29 ± 1.2 µM in test [2] (r-N35S/M481I, MES pH 5.5, 100 μM 14C-uric acid, read-out: IC50 (uric acid transport)).

For the compound `O=C1C(CC[S+]([O-])c2ccccc2)C(=O)N(c2ccccc2)N1c1ccccc1` (stereo not shown) [sulfinpyrazone], the half-inhibitory concentration (IC50) in test [1] (r-A21T, HEPES pH 7.3, 100 μM 14C-uric acid, read-out: IC50 (uric acid transport)) was determined as 471 ± 81 µM; at rat URAT1 (rURAT1 WT) (rURAT1 WT, HEPES pH 7.3, 100 μM 14C-uric acid, read-out: IC50 (uric acid transport)) it was 680 µM; in test [2] (r-N35S/M481I, HEPES pH 7.3, 100 μM 14C-uric acid, read-out: IC50 (uric acid transport)), 176 ± 44 µM.

Regarding `O=c1[nH]c(=O)c2[nH]c(=O)[nH]c2[nH]1` [uric acid], the 50% inhibitory concentration (IC50) at rat URAT1 (rURAT1 WT) (setting [3]) amounted to 2630 µM.

The record behind these values is paper PMC5054527, “Mechanism of high affinity inhibition of the human urate transporter URAT1” (Scientific Reports, 2016).
